Structure (SMILES) | melting point
CCCCCCCCCCCCN=C1SC(=CC(=O)O)C(=O)N1CCCCCCCCCCCC | 71 to 72 °C
Nc1nc2c(ncn2OCCCCP(=O)(O)O)c(=O)[nH]1 | 208 °C
COC(=O)C(C#N)C(=O)Nc1ccc(C(F)(F)F)cc1 (configuration not stated) | 186 to 189 °C
Brc1csc(C#Cc2ccccc2)n1 | 79 to 82 °C
CCc1c2c(c(C)c(C)c1N1CCN(c3ccc(OC)cc3)CC1)OC(C)(C)C2 | 150 to 151 °C
O=C(N[C@H]1CCN(C(=O)c2cc(C(F)(F)F)cc(C(F)(F)F)c2)[C@H](Cc2ccc(Cl)cc2)C1)c1cc(O)nc2ccccc12 | 222 to 224 °C
CC1(C)N(CC(N)=O)C(=O)CN1C(=O)CN1CCCC1=O | 225 to 227 °C
CCc1cccc(C)c1CNc1cc(C(=O)OC)cn2nc(C)nc12 | 140 °C
O=C(F)OC12CC3CC(CC(C3)C1)C2 | 32 to 33 °C
O=[N+]([O-])c1ccc(-c2cc(O)ccc2-c2ncnc(-c3ccccc3)n2)cc1 | 238 to 240 °C
CCN(C)C1=NS(=O)(=O)c2cccc(OC)c21 | 154 to 156 °C
N#Cc1cccc(-c2nc(N3CCC(O)C3)cc3cccnc23)c1 (configuration not stated) | 132 to 133 °C
Cc1cc(C)c(CSc2ccccc2)c(-c2ccc(F)c(C)c2)c1 | 72 to 74 °C
CC12CC(CCCCCCl)C3c4ccc(O)cc4CCC3C1CCC2O (configuration not stated) | 159 °C
CCCN(CCC)C(=O)Cc1ccc(O)c2[nH]ncc12 | 164 to 165 °C
CCNc1ccccc1Nc1c(C(=O)O)cnc2c1cnn2CC | 224 to 226 °C
Cc1nc2c(N)nc3ccccc3c2n1CCCS(C)(=O)=O | 225 to 228 °C
COc1ccc(C(=O)C2=C(c3ccccc3)CCc3ccccc32)cc1 | 106 to 107 °C
CC(C)n1nc(C#Cc2ccccc2F)ccc1=O | 84.5 to 86 °C
COc1ccc(C(=O)O)cc1CCCN(C)C | 135 to 138 °C
Cc1ccc(-c2cncnc2C#N)cc1 | 107 to 109 °C
CCCOc1ccccc1OS(=O)(=O)NC(=O)Nc1nc(OC)cc(OC)n1 | 108 to 109 °C
CC(=NNC(=O)c1cc([N+](=O)[O-])cc2ccccc12)c1ccncc1 | 228 °C
CCc1c(-c2ccc(OC)cc2)cn2ccc(OC)cc12 | 101 to 103 °C
C[C@H](OC(=O)CCC(=O)O[C@@H](C)C(=O)O)C(=O)O | 59 to 61 °C
CCOC(=O)c1cc2c(cn1)[nH]c1cccc(C=Nc3ccccc3)c12 | 298 to 302 °C

Structure (SMILES) | melting point
Cc1cccc(C(C)C)c1NC(=O)CCCCCBr | 66 to 67 °C
Nc1ccccc1-c1nnc(-c2ccc(C(=O)O)cc2)o1 | > 300 °C
Cc1nnc2ncc(-c3ccccc3F)nn12 | 200 to 204 °C
CN(C)C1=C(C#N)C(c2ccc(Cl)c([N+](=O)[O-])c2)c2ccc3ccccc3c2O1 (configuration not stated) | 218 °C
NC(=CC(=O)C1CC1)c1ccncc1 | 159 to 166 °C
CCOC(=O)C1=C(C)N(C(C)=O)C(c2csc(C)n2)=NC1c1ccc(Cl)cc1 (configuration not stated) | 169 to 171 °C
CCOC(=O)c1ccc2c(cnn2CCC#N)c1 | 106 to 109 °C
CCOC(=O)CCCn1nnnc1-c1ccc2c(c1)[C@@H](Nc1ccnc(SC)n1)[C@](C)(O)C(C)(C)O2 | 115 to 130 °C
O=C(Nc1cscn1)Nc1cccc2c1C1CCCCN1C2=O (configuration not stated) | 178 to 180 °C
Cn1cc(C(=O)c2sc(NC(=O)c3ccncc3)nc2-c2ccco2)ccc1=O | 294 to 295 °C
CCOC(=O)CC(=O)c1cc(F)c(S(=O)(=O)CC)nc1Nc1ccc(F)cc1F | 113 to 114 °C
COc1ccc(Oc2c(N)cc(C(=O)O)cc2S(N)(=O)=O)cc1 | 260 to 261 °C
CCCc1ccc(-c2ccc(CCc3ccc(Cl)c(F)c3)cc2)cc1 | 63.6 °C
CCCNc1cc(NS(=O)(=O)c2ccc(N)cc2)nc(NCCC)n1 | 211 to 215 °C
CCOC(=O)c1cnc2c(OC)cccc2c1Nc1cscc1OC | 176 to 178 °C
CN(c1cccc2cc(-c3ncc(CC(=O)N4CCOCC4)s3)[nH]c12)S(=O)(=O)c1cccs1 | 199 to 200 °C
COC(=O)c1cc(C(=O)OC)c2c(Cl)cc(Cl)cc2n1 | 116 to 118 °C
O=C1COCCCOC(=O)COCCCO1 | 135 to 136 °C
O=C(O)[C@@H]1C[C@@H](SC(c2ccccc2)(c2ccccc2)c2ccccc2)CN1S(=O)(=O)c1ccc2ccccc2c1 | 64 to 69 °C
CC(=O)Nc1ccc2nc(-c3ccccc3)cc(OCC(=O)N3CCOCC3)c2c1 | 261 °C
CCCCCCS(=O)C1CC(=O)N1CC(=O)CCc1ccccc1 (configuration not stated) | 154 to 155 °C
CC(C)(O)Cn1c(N)nc2c(N)nc3c(c21)CCCC3 | > 270 °C
CCc1nn(CCC(N)=O)c(CC)c1Cc1cc(Cl)cc(Cl)c1 | 140 to 142 °C
CS(=O)(=O)Nc1ccc2c(c1)C(=NO)CC1(CCN(CCc3ccccc3)CC1)O2 | 95 to 99 °C
Nc1ncnc2c1nc(COCP(=O)(O)O)n2CCC1CCCCC1 | > 250 °C
Cc1cc(OCCCCOCc2ccccc2)cc(C)c1N=Nc1ccc([N+](=O)[O-])cc1 | 68 to 69.5 °C

Structure (SMILES) | melting point
COc1cc([N+](=O)[O-])c(C(OC(=O)C(Cl)(Cl)Cl)c2ccccc2)c([N+](=O)[O-])c1OC (configuration not stated) | 105 to 106 °C
COc1ccc(Cc2nc3c(cnn3C(CCCc3ccccc3)C(C)=O)c(=O)[nH]2)cc1 (configuration not stated) | 129 °C
CC1CCCCN1c1nc(-c2ccc(Cl)cc2)c(CCC(=O)O)o1 (configuration not stated) | 126 to 128 °C
CN1Cc2cccnc2N(c2cccc(Cl)c2)C1=O | 139 to 140 °C
CCNC1=NN(c2ccc(Cl)cc2)C(C)C1 (configuration not stated) | 57 to 58 °C
CCCCC=C1SC(=S)N(N=c2sc3ccccc3s2)C1=O | 210 to 212 °C
O=C(Nc1cc2ncc(CN3CCCC3)cc2cc1F)c1ccc(-c2ccccc2)cc1 | 206 to 208 °C
CCS(=O)c1cc2c(c3c1OC(C)(C)C3)C(c1ccccc1)=NC(C)(C)C2 (configuration not stated) | 146 to 147 °C
Cc1nc(C)c(C=O)c(N)n1 | 148 to 156 °C
COc1cc2[nH]c3c(c2cc1OC)CC(=CC1CCN(Cc2ccccc2)CC1)C3=O | 244 to 245 °C
Nc1ccc2c(c1)C(CN1CCCCC1)CO2 (configuration not stated) | 144 to 150 °C
Cc1cc(Nc2nc(Cl)nc(Nc3cc(C)c(O)c(C(C)(C)C)c3)n2)cc(C(C)(C)C)c1O | 214 °C
CCCCc1nc(=O)c2cc(C#N)ccc2[nH]1 | 243 to 245 °C
FC(F)(F)Oc1ccc(-c2cncc(Cl)n2)cc1 | 58 to 60 °C
Cc1c(Cl)cccc1S(=O)(=O)Nc1ccc2sccc2c1 | 108 to 109 °C
COC(=O)C=Cc1ccc(OCc2nc(-c3ccccc3)c(-c3ccccc3)o2)cc1 | 159 to 161 °C
COC(=O)C(Cc1cc(C(C)(C)C)c(O)c(C)c1C)C(=O)OC | 140 to 143 °C
Cc1cc(-n2ccnc2)cc2ccc(=O)[nH]c12 | 259 to 262 °C
OCc1ccc2cccc(Br)c2c1 | 110 to 111 °C
CC(C)Nc1c([N+](=O)[O-])cnn1-c1ncc(Cl)cc1Cl | 123 °C
CCOC(=O)c1cccc2c1Nc1ccc(C(=O)c3ccccc3)cc1N2 | 175 to 177 °C
CC(C)C(=O)c1cccc(S(N)(=O)=O)c1 | 170 to 171 °C
Cn1c(=O)c2c(ncn2CCC(O)N2CCN(C(=O)c3ccco3)CC2)n(C)c1=O (configuration not stated) | 161 to 163 °C
COCc1cc2c(NC(=S)N3Cc4ccccc4CC3CCO)cccc2cn1 (racemic) | 152 °C
Cc1cc2c(nc1C(O)c1ccc(C(F)(F)F)cc1)CCCCC2 (configuration not stated) | 131 to 133 °C
O=C(O)CCc1cn(Cc2ccc(OCc3ccc(-c4ccccc4)nc3)cc2)nc1-c1ccccc1 | 155 to 156 °C

Structure (SMILES) | melting point
CCCCc1nc(C(C)(C)O)c(C(=O)O)n1Cc1ccc(-c2ccccc2C(=O)OC(C)(C)C)cc1 | 158 to 159 °C
CN(C(=O)c1cccs1)c1cccc(-c2nc(=O)c3ccccc3s2)n1 | 192 to 193 °C
Nc1nccc2cc(O)ccc12 | 258 to 260 °C
Cc1cccc(NC(=O)N(C)Cc2cccc3c2C(=O)N(C2CCC(=O)NC2=O)C3=O)c1 (configuration not stated) | 212 to 215 °C
COc1ccc(-c2ccc(Cl)nn2)cc1Br | 226 to 228 °C
COc1ccc2c(c1OC)OC(C)(C)CC2=O | 75 to 76 °C
Cc1ccc(-c2ccc3c(c2)C=C(C(=O)Nc2ccc(CNCC4CCCCC4)cc2)CCO3)cc1 | 154 to 155 °C
CCC#CCOc1cc2c(cc1C=O)C(C)(C)CCC2(C)C | 90 to 91 °C
c1ccc2c(c1)C(=NOCCN1CCCCC1)c1ccccc1C1CC21 (configuration not stated) | 75 to 76 °C
C=CCN1Cc2cc(Br)ccc2C1=O | 58 to 60 °C
Nc1cc(-c2ncnc(C(F)F)c2Cl)c(F)cc1Cl | 106 to 108 °C
c1ccc2c(c1)CC(CN1CCC(c3c[nH]c4ccccc34)CC1)C2 | 146 to 147 °C
Cc1c(-c2c[nH]c3c(-c4ccccc4)cccc23)nc2ccc(F)cc2c1C(=O)O | 148 to 150 °C
O=c1[nH]c2ccccc2n1CCN1CCCCC1 | 123 to 125 °C
Nc1c(Cl)cc(I)cc1Cl | 100 to 102 °C
CCCOC(=O)C1=C(C)NC(C)=C(C(=O)N[C@H](C(=O)OCC)C(C)C)[C@@H]1c1cccc([N+](=O)[O-])c1 | 119 to 121 °C
CCNC(=S)NS(=O)(=O)c1cc2c(cc1OC)OCCC2CNC(=O)c1cc(F)ccc1OC (configuration not stated) | 207 °C
Cc1nc2c(c(=O)[nH]1)-c1ccc(Cl)cc1C(c1ccccc1)=NC2 | 245 to 248 °C
CCc1nc2c(N)nc3ccccc3c2n1CCCS(=O)(=O)NC | 225 to 228 °C
COc1cc2cnc3c(c2cc1OC)Cc1c-3cc2c(c1CN(C)C)OCO2 | 205 to 207 °C
O=C(Nc1ccc(Cl)cc1)NC1N=C(c2ccccc2F)c2ccccc2NC1=O (racemic) | 278 °C
COc1ccc(C2Sc3c(ccc4ccccc34)N(CCN(C)C)C(=O)C2OC(=O)c2cccnc2)cc1 (configuration not stated) | 144 to 145 °C
COc1cc(C=Cc2nc3c(c(=O)n(C)c(=O)n3C)n2C)cc(OC)c1OCc1ccccc1 | 190 to 195 °C
CCCc1ccc(-c2cc(NC(=O)C3Cc4ccccc4C3)n[nH]2)cc1 | 211 to 213 °C
